Reference: article PMC11859423, “Fluorescent Probes to Image the KCa3.1 Channel in Tumor Cells” (Pharmaceutics, 2025)
Several values for one entry are separate records, joined by “and”; a condition that tells them apart may be missing. Identical values can stand only once. Entries after “also recorded” stand apart in the source; their conditions may differ.

Legend:
Type in all cases: cell-based
[1] = target: T1, KCa3.1 channel in A549-3R cells (Homo sapiens, UniProt O15554); experiment: Staining of fixed A549-3R tumor cells (Protocol 1), fluorescence microscopy; details: 10 min, 4 °C
T1 construct: the non-small cell lung cancer cell line A549-3R with a high expression of the KCa3.1 channel was employed; endogenous in cells; host or cells: A549-3R cells
Procedure: For the fixation of the cells, the DMEM medium was removed from the glass bottom dish after incubation for 24 h, and the cells were washed with 1 mL of PBS. Subsequently, 1 mL of 4% paraformaldehyde in PBS solution was added to the glass bottom dish and the mixture was incubated for 30 min at room temperature. Thereafter, the cells were washed five times with 1 mL of PBS and used for the cell staining experiments.
(§1) After fixation of the cells (Section 2.10.2), 300 µL of the 10 µM staining solution was added to the glass bottom dish. The cells were incubated for 10 min at 4 °C in a dark chamber. After incubation, the cells were washed five times with 1 mL of PBS and used subsequently for fluorescence microscopy.
An Axiovert 200 inverted microscope (Carl Zeiss AG, Jena, Germany) with a ×100 oil immersion objective and a digital camera (SPOT RT SE from Diagnostic Instruments Inc., Livingston, UK) were used. The camera was controlled by MetaVue software (version 6.3r6, Visitron, Germany). Two different filter sets were employed, the FITC filter set (Carl Zeiss Filter Set 10 bandwidth excitation filter 450–490, color splitter 510, bandpass filter 515–565) and the TRITC filter set (Carl Zeiss Filter Set 15, bandpass excitation filter 546/12, dichroic mirror 580, emission filter Long Pass 590).
Using the free imaging software ImageJ (1.53f51, NIH, USA), squares with an edge length of 50 × 50 pixels, corresponding to an area of 9 µm^2, were randomly placed in a cell and signals with Full Width at Half Maximum (FWHM) of ≤5 pixels (~300 nm) were counted as a KCa3.1 channel. For the evaluation, 7 squares were analyzed.
For the staining experiments, the non-small cell lung cancer cell line A549-3R with a high expression of the KCa3.1 channel was employed. An optimized staining protocol (Protocol 1) described previously was followed to analyze the imaging properties of the fluorescent probes. In brief, the 10 µM solution of the senicapoc–dye conjugate in PBS was added to adherent A549-3R cells in a glass bottom dish and the set-up was incubated for 10 min at 4 °C in a dark chamber. After careful washing, the cells were analyzed with a fluorescence microscope.
The images were analyzed with respect to size and density of the fluorescent dots. For this purpose, a square with a size of 50 × 50 pixels was randomly placed on the cell images using ImageJ. The intensities of the signals within the square were analyzed to calculate the Full Width at Half Maximum (FWHM) for each selected dot, which represents a measure for the signal size. For the accurate representation of a single KCa3.1 channel, the FWHM should be in the range of five pixels. Signals with a FWHM of ≤5 pixels within the square were regarded as labeled KCa3.1 channels and the number of identified channels was used to determine the density of the ion channels on the cells (Figure S8, Supplementary Materials).

[2] = tested on: HEK293 cells; experiment: Negative control staining of HEK293 cells, which do not express KCa3.1 channels; details: HEK293 cells do not express KCa3.1 channels
Procedure: as §1
In a second control experiment, azide precursor 7b without the senicapoc warhead was incubated with fixed A549-3R tumor cells.

[3] = target: T1, KCa3.1 channel in A549-3R cells; experiment: Staining of permeabilized A549-3R cells (Protocol 5)
Procedure: After fixation of the cells (Section 2.10.2), 1 mL of permeabilization solution was added to the glass bottom dish. The cells were incubated for 30 min at 4 °C and afterwards washed three times with PBS. Subsequently, Protocol 1 was performed.
The specificity of the bodipy-labeled senicapoc derivative 10b was further analyzed via conducting co-staining experiments with antibodies. For staining with antibodies, A549-3R cells had to be permeabilized with saponin, since the antibody binds at the intracellular part of the ion channel only after entering the cell. […] For antibody-based immunofluorescence staining of the KCa3.1 channels of permeabilized A549-3R cells, various concentrations of the primary and secondary antibody were tested. Optimal images were obtained with a dilution of 1:300 for the primary antibody and 1:500 for the secondary antibody (see Figure S13, Supplementary Materials). The images obtained by immunofluorescence staining were analyzed as described above for the images with fluorescent probe 10b. This analysis led to a FWHM of 4.80 ± 0.83 pixels and a density of 1.75 ± 0.19 KCa3.1 channels/µm^2. […]

CCC1=C(C)C2=C(c3ccc(OCCOCCn4cc(COc5ccc(C(C(N)=O)(c6ccccc6)c6ccc(F)cc6)cc5)nn4)cc3)c3c(C)c(CC)c(C)n3[B-](F)(OC)[N+]2=C1C (stereo not drawn) [10b, 2-{4-[(1-{2-[4-(2,6-Diethyl-4-fluoro-4-methoxy-1,3,5,7-tetramethyl-4-bora-3a,4a-diaza-s-indacen-8-yl)phenoxy]ethoxyethyl}-1,2,3-triazol-4-yl)methoxy]phenyl}-2-(4-flluorophenyl)-2-phenylacetamide]
staining pattern of fixed A549-3R tumor cells ([1]; 10 µM in PBS, Protocol 1): expected punctate staining pattern of the membrane
FWHM of fluorescent dots ([1]; fixed A549-3R cells, 10 µM): 5.27 ± 0.22 pixels and 5.27 pixels
density of labeled KCa3.1 channels ([1]; fixed A549-3R cells, 10 µM): 1.22 ± 0.26 KCa3.1 channels per µm^2 and 1.22 KCa3.1 channels per µm^2
staining pattern of HEK293 cells (negative control) [2]: a punctate staining pattern was not observed; also recorded: could not be observed
density of labeled KCa3.1 channels ([3]; permeabilized A549-3R cells): 1.15 ion channels/µm^2
staining pattern of permeabilized A549-3R cells ([3]; saponin permeabilization, Protocol 5): expected punctate staining pattern
